# Measured values from US20060100177A1, “Stabilized ascorbic acid derivatives” (priority 2002, published 2006).
# Legend:
# [1] = stability test of aqueous solution, ratio of compound remaining after storage (HPLC); format: physicochemical; details: 2 mass % in purified water, glass bottle, 40° C., light-shielding, 10 days
# Method: (under light-shielding condition) for 10 days. The ratio of the compound remaining after the storage was analyzed by using a high-performance liquid chromatograph equipped with Shodex (registered trademark of Showa Denko K.K.) SB802.5 HQ (mfd. by Showa Denko K.K.) column.
# (Measurement Conditions for High-Performance Liquid Chromatography)
# [2] = system: human skin tissue three-dimensional model (TESTSKIN LSD-d); test: amount of ascorbic acid in human skin tissue three-dimensional model after application of test solution; format: cell-based; details: for amount of the ascorbic acid, 2 hours after culture / amount of the ascorbic acid, 6 hours after culture / amount of the ascorbic acid, 12 hours after culture: 40 μL test solution in Dulbecco PBS(−) applied 2 h (1) 2%; 2) and 3) 0.5%), removed; for amount of the ascorbic acid, 2 hours after culture: then cultured 2 hours; for amount of the ascorbic acid, 6 hours after culture: then cultured 6 hours; for amount of the ascorbic acid, 12 hours after culture: then cultured 12 hours; for concentration of ascorbic acid in the tissue (in words): administered to the skin model
# Method: To the surface of a human skin tissue three-dimensional model (trademark: TESTSKIN LSD-d, mfd. by Toyobo Co., Ltd.), 40 μL of a solution which had been obtained by dissolving each of the substances (1) to (3) to be tested in Dulbecco PBS (−), and the resultant skin tissue model was cultured at 37° C. in the presence of 5% CO2 for two hours. Then, the test solution was removed by aspiration, and thereafter the skin tissue model was cultured at 37° C. in the presence of 5% CO2 for 2, 6 and 12 hours, respectively.
# Each of the portions of the skin model which had been sampled at each culture time was washed with Dulbecco PBS (−), the surface portion was punched out by using a punch having a diameter of 6 mm φ, and homogenized in a HEPES buffer solution (pH 7.2) to obtain a homogenate. By use of the thus obtained homogenate, the amount of the ascorbic acid contained in the skin model was quantitatively analyzed by using a high performance liquid chromatography. The protein content in the skin model was quantitatively analyzed by using the Lowry method.
# Measurement Conditions for High Performance Liquid Chromatography
# guinea pig incised wound = test: collagen synthesis-accelerating effect in guinea pig model system having an incised wound; format: in vivo; details: for Detachment tension / Hydroxyproline content: 0.2 ml test solution twice a day for four days (1) 2%; 2) and 3) 1%); for Detachment tension: incised wound on back; for Hydroxyproline content: skin section with incised wound, index of collagen; for effect on collagen synthesis and recovery of incised wound (in words): guinea pig incised wound
# Excerpt: The collagen synthesis-accelerating effects of the following 1) to 3) test substances was compared with each other, by using a guinea pig model system having an incised (or cut) wound. The base material for dissolving each test substance was purified water containing 20% of ethanol, and 3% of propylene glycol. In this experiment, two incised wounds each having a length of 2 cm were formed on the back of a guinea pig by using a scalpel, so that the incised wounds are positioned symmetrically with regard to the center portion of the back. Then, 0.2 ml of the test substance solution was administered thereto twice a day, for four days. After the last administration was completed, a skin piece of 2 cm×2 cm (square shape) was surgically removed from the back of the guinea pig, so that the incised wound portions were positioned substantially at the center of the skin piece. Then, the tension required for the detachment of the incised wound surface was measured. Five guinea pigs were used with respect to one kind of the test substances. […] After the separation thereof by centrifugation, the resultant supernatant was freeze-dried. The protein content of the thus obtained skin sample was hydrolyzed with hydrochloric acid, and was subjected to amino acid analysis by use of AccQ.Tag Amino acid Analyzer (mfd. by Waters Co.). The results of the detachment tension measurement for the incised wound portion to which each test substance had been applied, and the hydroxyproline content thereof were as follows. Herein, the hydroxyproline is a substance which can be taken as an index of collagen.
Compound,Residual Ratio (%) [1] [%],"amount of the ascorbic acid, 2 hours after culture [2] [nmol/mg skin protein]","amount of the ascorbic acid, 6 hours after culture [2] [nmol/mg skin protein]","amount of the ascorbic acid, 12 hours after culture [2] [nmol/mg skin protein]",concentration of ascorbic acid in the tissue (in words) [2],Detachment tension (guinea pig incised wound) [g/cm],Hydroxyproline content (guinea pig incised wound) [nmol/skin wet weight],effect on collagen synthesis and recovery of incised wound (in words) (guinea pig incised wound)
"CCCCCCCCC(CCCCCC)C(=O)OC[C@H](O)[C@H]1OC(=O)C(OP(=O)(O)O)=C1O.[Na] (stereo partly drawn) [Example A-1, L-Ascorbic acid-2-phosphoric acid-6-(2′-hexyldecanoate) sodium salt]",95.3,6,10,23,concentration of the ascorbic acid in the tissue could easily be enhanced effectively,181,38.5,had an effect of accelerating the collagen synthesis
"O=C1O[C@H]([C@@H](O)CO)C(O)=C1OP(=O)([O-])[O-].[Na+].[Na+] [Comparative Example A-2, L-ascorbic acid-2-phosphate sodium salt, reference compound]",96.9,,,,,123,32.1,
"CCCCCCCCCC(CCCCCCC)C(=O)OC[C@H](O)[C@H]1OC(=O)C(OP(=O)(O)O)=C1O.[Na] (stereo partly drawn) [Example A-2, L-Ascorbic Acid-2-Phosphoric Acid-6-(2′-n-Heptylundecanoate) sodium salt]",95.5,5,11,26,concentration of the ascorbic acid in the tissue could easily be enhanced effectively,187,37.6,had an effect of accelerating the collagen synthesis
"CCCCCCCCCCCCCCCC(=O)OC[C@H](O)[C@H]1OC(=O)C(OP(=O)(O)O)=C1O.[Na] [Comparative Example A-1, L-ascorbic acid-2-phosphoric acid-6-palmitatic acid ester sodium salt, reference compound]",88.6,,,,,,,
